Laboratory results taken from patent US20190307729A1, “ANTIMICROBIAL COMPOUNDS AND METHODS FOR USE THEREOF” (VERSITECH LIMITED, priority 2016, published 2019).
Where two headings read alike, the source gives them in different places.

Tests used:
[1] = system: E. coli; assay: Checkerboard assay with gentamicin; assay type: cell-based, Escherichia coli
Protocol: Bacterial culture are topped and incubated overnight.

[2] = system: S. pneumoniae; assay: Checkerboard assay with gentamicin
Protocol: (§1) The Checkerboard assay is performed in 96-well microtitre plates. […] The antibiotics are 2 fold serially diluted along the ordinate, the compounds are added along the abscissa to generate the checkerboard concentration gradients between the compounds and the antibiotics. Bacterial culture are topped and incubated overnight. Bacterial growth is monitored by the OD absorbance at 595 nm.
(§2) The concentration tested range was from 500M to 0.98 μM. MICs higher than 500M were not determined.

[3] = system: S. aureus Mu3 strain; assay: Microdilution checkerboard assay of compound with aminoglycosides
Protocol: as §1, §2

[4] = system: S. aureus Mu3; assay: Secondary screening of compound 13 analogues in combination with gentamicin (growth by OD 595 nm); conditions: for relative growth: relative to DMSO = 1
Protocol: All screening is done in 384-well polystyrene microtiter plates (Greiner Bio-One). Overnight culture of Mu3 is washed with BHI medium 3 times, diluted and plated to give 5×10^5 CFU/mL per well. The plates are incubated at 37° C. for 16 hours and growth is monitored by optical density reading at 595 nm using an automated DTX 880 multimode detector. Screening using BHI medium is designated as the background screen. […] Sub MIC concentration of antibiotics is selected for screening. BHI containing a final concentration for gentamicin 156.25 μg/mL is used correspondingly for individual experiments. […] Screening results with various antibiotics is normalized with the background screening to calculate the percentage of growth inhibition.
Identical experimental procedures are performed as primary screening procedures, except different concentrations of selected compound are tested.
Secondary like screening was performed with different concentrations of each analogue compounds were tested with different gentamicin concentration, 50 μM, 20 μM and 5 μM compound concentration were used against, BHI containing, 0 μg/ml, 100 μg/ml and 200 μg/ml gentamicin.

[5] = system: L. monocytogenes; assay: Checkerboard assay with gentamicin
Protocol: as §1, §2

[6] = system: P. aeruginosa; assay: Pigment formation (virulence suppression); assay type: cell-based, Pseudomonas aeruginosa
[7] = system: E. faecalis; assay: Checkerboard assay with gentamicin
Protocol: as §1, §2

[8] = system: Vero cells; assay: Cytotoxicity assay (MTT); assay type: cell-based
Protocol: MTT assays are performed for selected compounds on Vero cells according to product instructions.

For `O=C(O)CN1C(=O)C(=Cc2ccc(OCc3ccc(Cl)cc3)cc2)SC1=S` [Compound 82], which “combined effect with gentamicin in inhibiting growth” value [1] is on record?
Its value is “synergistic effect”.

What about the “combined effect with gentamicin in inhibiting growth” value ([1]; listed as compound 82) of the same molecule?
The value was “potentiating effect”.

What about the “combined effect with gentamicin in inhibiting growth” value [2] of the same molecule?
Its value is “potentiating effect”.

What about the “Combinatory effect with gentamicin” value ([3]; checkerboard) of the same molecule?
The value was “Potentiating”.

What about the “combined effect with gentamicin in inhibiting growth” value ([3]; gentamicin) of the same molecule?
The value was “good level of potentiating effect”.

And the “combined effect with neamine in inhibiting growth” value [3]?
Its value is “retained its potentiating effect”.

And the “combined effect with neamine in inhibiting growth” value ([3]; listed as compound 82)?
Its value is “potentiating effect”.

What about the “20 μM + 200 μg/ml Gentamicin Growth inhibition Percentage” value ([4]; 20 μM compound + 200 μg/ml gentamicin, S. aureus Mu3) of the same molecule?
Its value is 91%.

What about the “50 μM + 200 μg/ml Gentamicin Growth inhibition Percentage” value ([4]; 50 μM compound + 200 μg/ml gentamicin, S. aureus Mu3) of the same molecule?
The value was 89%.

What about the relative growth ([4]; [Cpd] 5 μM, BHI only (no gentamicin)) of the same molecule?
Its relative growth is 1.03.

And the relative growth ([4]; [Cpd] 5 μM, [Genta] 100 ug/ml)?
The relative growth was 0.98.

What about the relative growth ([4]; [Cpd] 5 μM, [Genta] 200 ug/ml) of the same molecule?
The relative growth was 0.61.

What about the relative growth ([4]; [Cpd] 20 μM, BHI only (no gentamicin)) of the same molecule?
Its relative growth is 0.78.

And the relative growth ([4]; [Cpd] 20 μM, [Genta] 100 ug/ml)?
Its relative growth is “*0.09”.

And the relative growth ([4]; [Cpd] 20 μM, [Genta] 200 ug/ml)?
Its relative growth is “*0.09”.

What about the relative growth ([4]; [Cpd] 50 μM, BHI only (no gentamicin)) of the same molecule?
Its relative growth is 0.99.

What about the relative growth ([4]; [Cpd] 50 μM, [Genta] 100 ug/ml) of the same molecule?
Its relative growth is “*0.13”.

What about the relative growth ([4]; [Cpd] 50 μM, [Genta] 200 ug/ml) of the same molecule?
Its relative growth is “*0.11”.

And the “combined effect with gentamicin in inhibiting growth” value [5]?
Its value is “potentiating effect”.

And the pigment formation [6]?
The pigment formation was “repressing the pigment formation”.

What about the “combined effect with gentamicin in inhibiting growth” value [7] of the same molecule?
The value was “potentiating effect”.

And the “cytotoxicity from Vero cell MTT assays” value [8]?
The value was “low cytotoxicity”.

What about the Cytotoxicity ([8]; MTT assays in Vero cells) of the same molecule?
Its Cytotoxicity is “Low”.
